{"source": "patent US20260284055A1", "about": "“FGFR4 INHIBITOR COMPOSITION, PREPARATION METHOD THEREFOR AND PHARMACEUTICAL USE THEREOF” (Abbisko Therapeutics Co., Ltd., priority 2023, published 2026)", "format_in_all_cases": "physicochemical", "key": {"[1]": {"experiment": "Particle size distribution of active pharmaceutical ingredient (Malvern Mastersizer 2000)", "method": "The active pharmaceutical ingredient was mechanically milled, and samples were taken at different milling time points. The particle size distribution was determined using a Malvern Mastersizer 2000 laser particle size analyzer, and the particle morphology was observed using a polarizing microscope. [table]"}, "[2]": {"experiment": "Hygroscopic weight gain (gravimetric method)", "method": "Gravimetric method: The initial weight of a sample was measured, recorded as W1, and then the weight of the sample after being placed under high-humidity conditions for a certain period of time was measured, recorded as W2; the percentage of hygroscopic weight gain was calculated based on the weight difference, using the following calculation formula: (W2−W1)/W1*100%.\n(§1) The inventors first conducted a study on the physicochemical properties of the active pharmaceutical ingredient. The specific procedures were as follows: The active pharmaceutical ingredient and different auxiliary materials were mixed at different ratios and then placed under different conditions; the samples were taken out at different time points and then observed for appearance, hygroscopic weight gain, active pharmaceutical ingredient content, related substance content, etc."}, "[3]": {"experiment": "Related substances (HPLC), compatibility and stability", "method": "Gradient elution was performed according to the table below, with a run time of 50.0 min and a post-run time of 5 min.\nas §1"}, "[4]": {"experiment": "Content determination of active pharmaceutical ingredient (HPLC)", "method": "Chromatographic conditions: Octadecylsilane-bonded silica gel was used as the filler (Waters XBridge® C18, 4.6×150 mm, […] chromatographic column or chromatographic column with equivalent performance); a 0.1 vol % trifluoroacetic acid solution was used as mobile phase A, and a solution of 0.1 vol % trifluoroacetic acid in acetonitrile was used as mobile phase B; isocratic elution was performed with mobile phase A-mobile phase B (70:30); the detection wavelength was 232 nm, the flow rate was 1.0 mL/min, the column temperature was 40° C., the sample injection volume was 10 μL, and the run time was 10 min.\nas §1"}, "[5]": {"experiment": "Micromeritic properties of powders (angle of repose, bulk density, tap density, Carr index, flowability)"}, "[6]": {"settings": "API of the capsule batch of the same table line"}}, "data": [{"smiles": "C=CC(=O)N[C@H]1CCOC[C@H]1Nc1ncc2cc(-c3c(F)c(OC)cc(OC)c3F)nc(N3CC(C)(OC)C3)c2n1", "note": "[Test 0]", "values": [{"measurement": "Particle size distribution D50", "setting": "[1]", "value": 155.607, "unit": "μm"}, {"measurement": "Particle size distribution D90", "setting": "[1]", "value": 333.563, "unit": "μm"}]}, {"smiles": "C=CC(=O)N[C@H]1CCOC[C@H]1Nc1ncc2cc(-c3c(F)c(OC)cc(OC)c3F)nc(N3CC(C)(OC)C3)c2n1", "note": "[Test 1]", "values": [{"measurement": "Particle size distribution D10", "setting": "[1]", "value": 2.168, "unit": "μm"}, {"measurement": "Particle size distribution D50", "setting": "[1]", "value": 14.763, "unit": "μm"}, {"measurement": "Particle size distribution D90", "setting": "[1]", "value": "D90 = 125.775 μm"}]}, {"smiles": "C=CC(=O)N[C@H]1CCOC[C@H]1Nc1ncc2cc(-c3c(F)c(OC)cc(OC)c3F)nc(N3CC(C)(OC)C3)c2n1.Cc1ccc(S(=O)(=O)O)cc1.O", "note": "[Active pharmaceutical ingredient, p-toluenesulfonate monohydrate of the compound of formula (I)]", "values": [{"measurement": "Percentage change in hygroscopic weight gain", "setting": "[2]; 25° C./92.5% RH, 10 d", "value": 0.6, "unit": "%"}, {"measurement": "Percentage change in hygroscopic weight gain", "setting": "[2]; 25° C./92.5% RH, 30 d", "value": 0.3, "unit": "%"}, {"measurement": "Percentage change in hygroscopic weight gain", "setting": "[2]; 40° C./75% RH, 10 d", "value": 0.2, "unit": "%"}, {"measurement": "Percentage change in hygroscopic weight gain", "setting": "[2]; 40° C./75% RH, 30 d", "value": "−0.3", "unit": "%"}, {"measurement": "Hygroscopicity", "setting": "[2]; API alone", "value": "not highly hygroscopic"}, {"measurement": "Related substance (%)", "setting": "[3]; 0 d", "value": 0.66, "unit": "%"}, {"measurement": "Related substance (%)", "setting": "[3]; 25° C./92.5% RH (open), 30 d", "value": 0.98, "unit": "%"}, {"measurement": "Related substance (%)", "setting": "[3]; 25° C./92.5% RH (open), 30 d, listed as active pharmaceutical ingredient", "value": "slight increase in impurities"}, {"measurement": "Related substance (%)", "setting": "[3]; 40° C./75% RH (open), 30 d", "value": 0.58, "unit": "%"}, {"measurement": "Related substance (%)", "setting": "[3]; 40° C./75% RH (open), 30 d, listed as active pharmaceutical ingredient", "value": "remained stable"}, {"measurement": "Related substance (%)", "setting": "[3]; 60° C. (open), 30 d", "value": 0.66, "unit": "%"}, {"measurement": "Related substance (%)", "setting": "[3]; 60° C. (open), 30 d, listed as active pharmaceutical ingredient", "value": "remained stable"}, {"measurement": "RRT = 0.27 related substance content", "setting": "[3]; API", "value": "<0.05", "unit": "%"}, {"measurement": "RRT = 0.44 related substance content", "setting": "[3]; API", "value": 0.09, "unit": "%"}, {"measurement": "RRT = 0.56 related substance content", "setting": "[3]; API", "value": "<0.05", "unit": "%"}, {"measurement": "RRT = 0.71 related substance content", "setting": "[3]; API", "value": 0.05, "unit": "%"}, {"measurement": "RRT = 0.74 related substance content", "setting": "[3]; API", "value": 0.06, "unit": "%"}, {"measurement": "RRT = 0.88 related substance content", "setting": "[3]; API", "value": 0.06, "unit": "%"}, {"measurement": "RRT = 0.97 related substance content", "setting": "[3]; API", "value": "<0.05", "unit": "%"}, {"measurement": "RRT = 1.05 related substance content", "setting": "[3]; API", "value": "<0.05", "unit": "%"}, {"measurement": "RRT = 1.09 related substance content", "setting": "[3]; API", "value": "<0.05", "unit": "%"}, {"measurement": "RRT = 1.27 related substance content", "setting": "[3]; API", "value": 0.20, "unit": "%"}, {"measurement": "RRT = 2.00 related substance content", "setting": "[3]; API", "value": 0.14, "unit": "%"}, {"measurement": "Related substance", "setting": "[3]; API", "value": 0.60, "unit": "%"}, {"measurement": "API impurities: Single impurity", "setting": "[3]; [6]", "value": "Single impurity < 0.05%"}, {"measurement": "API impurities: Total impurities", "setting": "[3]; [6]", "value": "Total impurities < 0.05%"}, {"measurement": "Related substance (%)", "setting": "[3]; Light exposure (open), 10 d", "value": 0.64, "unit": "%"}, {"measurement": "Related substance (%)", "setting": "[3]; Light exposure (open), 10 d, listed as active pharmaceutical ingredient", "value": "remained stable"}, {"measurement": "single impurity (RRT=0.44)", "setting": "[3]; after 10 days of exposure to light", "value": 0.07, "unit": "%"}, {"measurement": "single impurity (RRT=0.44)", "setting": "[3]; before exposure to light", "value": "< 0.05", "unit": "%"}, {"measurement": "Content", "setting": "[4]; 0 d", "value": 100.5, "unit": "%"}, {"measurement": "Content", "setting": "[4]; 25° C./92.5% RH, 30 d", "value": 99.5, "unit": "%"}, {"measurement": "Content", "setting": "[4]; 40° C./75% RH, 30 d", "value": 98.6, "unit": "%"}, {"measurement": "Content", "setting": "[4]; 60° C., 30 d", "value": 102.5, "unit": "%"}, {"measurement": "Content", "setting": "[4]; Light exposure, 10 d", "value": 96.5, "unit": "%"}, {"measurement": "Angle of repose", "setting": "[5]", "value": 44.66, "unit": "°"}, {"measurement": "Bulk density", "setting": "[5]", "value": 0.447, "unit": "g/mL"}, {"measurement": "Carr index", "setting": "[5]", "value": 40, "unit": "%"}, {"measurement": "Tap density", "setting": "[5]", "value": 0.740, "unit": "g/mL"}]}, {"smiles": "C=CC(=O)N[C@H]1CCOC[C@H]1Nc1ncc2cc(-c3c(F)c(OC)cc(OC)c3F)nc(N3CC(C)(OC)C3)c2n1", "note": "[Test 2]", "values": [{"measurement": "Particle size distribution D10", "setting": "[1]", "value": 1.509, "unit": "μm"}, {"measurement": "Particle size distribution D50", "setting": "[1]", "value": 9.682, "unit": "μm"}, {"measurement": "Particle size distribution D90", "setting": "[1]", "value": "D90 = 63.594 μm"}]}, {"smiles": "C=CC(=O)N[C@H]1CCOC[C@H]1Nc1ncc2cc(-c3c(F)c(OC)cc(OC)c3F)nc(N3CC(C)(OC)C3)c2n1", "note": "[Test 3]", "values": [{"measurement": "Particle size distribution D10", "setting": "[1]", "value": 1.298, "unit": "μm"}, {"measurement": "Particle size distribution D50", "setting": "[1]", "value": 8.279, "unit": "μm"}, {"measurement": "Particle size distribution D90", "setting": "[1]", "value": "D90 = 43.137 μm"}]}]}
